ChEMBL document CHEMBL5338751, “Discovery of the First-in-Class Intestinal Restricted FXR and FABP1 Dual Modulator ZLY28 for the Treatment of Nonalcoholic Fatty Liver Disease” (J Med Chem, 2023)
The source made the active and inactive calls. The rule behind the calls is not given here.

Columns and labels:
[1] = biological target: T1, Bile acid receptor (Mus musculus) (UniProt Q60641); experiment: In vivo activation of FXR pathway in western diet and CCl4-induced nonalcoholic steatohepatitis C57BL/6 mouse model assessed as upregulation of SHP gene expression in ileum at 20 mg/kg, po administered for 12 weeks starting from week 8 and change in dose for every 5 days by RT-PCR analysis; assay type: functional, organism-based; conditions: time 4.0 weeks
T1 sequence (whole entry): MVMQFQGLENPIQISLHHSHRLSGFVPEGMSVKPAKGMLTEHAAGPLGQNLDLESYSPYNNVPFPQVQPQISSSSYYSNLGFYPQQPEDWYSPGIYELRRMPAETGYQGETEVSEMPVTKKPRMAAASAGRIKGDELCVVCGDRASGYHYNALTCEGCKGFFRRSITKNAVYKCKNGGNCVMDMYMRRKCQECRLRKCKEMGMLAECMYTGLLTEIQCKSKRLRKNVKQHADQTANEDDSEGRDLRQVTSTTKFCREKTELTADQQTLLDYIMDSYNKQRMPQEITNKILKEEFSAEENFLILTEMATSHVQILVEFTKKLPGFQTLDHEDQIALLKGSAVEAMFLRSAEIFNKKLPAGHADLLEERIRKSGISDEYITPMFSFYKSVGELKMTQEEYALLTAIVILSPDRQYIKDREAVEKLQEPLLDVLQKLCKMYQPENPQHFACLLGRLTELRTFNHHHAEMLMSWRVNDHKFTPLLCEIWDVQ

[2] = Drug concentration in C57BL/6 mouse ileum at 20 mg/kg, po administered for 5 days and measured after 1 hr post final dose by LC-MS analysis; assay type: ADME, organism-based; conditions: time 5 day, read-out: Ct
[3] = Agonist activity at PPARbeta/delta (unknown origin) transfected in HepG2 cells incubated for 18 hrs by renilla/firefly based dual-glo luciferase assay; assay type: cell-based; conditions: Homo sapiens, HepG2, 18 h
[4] = Ratio of drug level in liver to plasma in C57BL/6 mouse at 20 mg/kg, po administered for 5 days and measured after 1 hr post final dose by LC-MS analysis
[5] = Subacute toxicity in ICR mouse assessed as reduction in serum TBIL level at 500 mg/kg/day, po administered for 14 days; assay type: organism-based; conditions: in vivo, 336 h, time 14 day
Bile acid receptor = biological target: T2, Bile acid receptor (Homo sapiens, UniProt Q96RI1); experiment: Agonist activity at FXR-LBD (unknown origin) using fluorescein-coactivator peptide incubated for 3 hrs by TR-FRET assay
T2 sequence (Q96RI1 whole entry): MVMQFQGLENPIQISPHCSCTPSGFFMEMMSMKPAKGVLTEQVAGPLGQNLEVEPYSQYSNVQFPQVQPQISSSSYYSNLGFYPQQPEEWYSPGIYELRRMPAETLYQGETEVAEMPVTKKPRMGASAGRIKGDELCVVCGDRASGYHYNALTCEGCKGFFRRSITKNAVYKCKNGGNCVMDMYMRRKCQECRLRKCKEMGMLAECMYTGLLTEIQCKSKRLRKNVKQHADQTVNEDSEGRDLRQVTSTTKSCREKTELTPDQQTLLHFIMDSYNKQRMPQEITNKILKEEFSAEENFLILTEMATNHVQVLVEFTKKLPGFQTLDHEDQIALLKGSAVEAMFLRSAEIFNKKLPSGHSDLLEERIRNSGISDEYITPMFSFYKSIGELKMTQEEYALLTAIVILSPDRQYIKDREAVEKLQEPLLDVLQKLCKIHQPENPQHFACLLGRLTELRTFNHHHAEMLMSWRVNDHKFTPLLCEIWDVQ

Mus musculus [6] = experiment: Anti-NASH activity in western diet and CCl4-induced nonalcoholic steatohepatitis C57BL/6 mouse assessed as downregulation of IL6 expression level at 20 mg/kg, po administered for 12 weeks starting from week 8 and change in dose for every 5 days by ELISA; assay type: functional, organism-based; conditions: time 4.0 weeks
Progesterone receptor = Progesterone receptor (Homo sapiens, UniProt P06401); experiment: Activation of Gal-DBD and NHRLBD fused PR (unknown origin) transfected in African green monkey CV-1 cells by luciferase reporter assay; assay type: cell-based
Sequence of Progesterone receptor (P06401 whole entry, the tested form may be a part): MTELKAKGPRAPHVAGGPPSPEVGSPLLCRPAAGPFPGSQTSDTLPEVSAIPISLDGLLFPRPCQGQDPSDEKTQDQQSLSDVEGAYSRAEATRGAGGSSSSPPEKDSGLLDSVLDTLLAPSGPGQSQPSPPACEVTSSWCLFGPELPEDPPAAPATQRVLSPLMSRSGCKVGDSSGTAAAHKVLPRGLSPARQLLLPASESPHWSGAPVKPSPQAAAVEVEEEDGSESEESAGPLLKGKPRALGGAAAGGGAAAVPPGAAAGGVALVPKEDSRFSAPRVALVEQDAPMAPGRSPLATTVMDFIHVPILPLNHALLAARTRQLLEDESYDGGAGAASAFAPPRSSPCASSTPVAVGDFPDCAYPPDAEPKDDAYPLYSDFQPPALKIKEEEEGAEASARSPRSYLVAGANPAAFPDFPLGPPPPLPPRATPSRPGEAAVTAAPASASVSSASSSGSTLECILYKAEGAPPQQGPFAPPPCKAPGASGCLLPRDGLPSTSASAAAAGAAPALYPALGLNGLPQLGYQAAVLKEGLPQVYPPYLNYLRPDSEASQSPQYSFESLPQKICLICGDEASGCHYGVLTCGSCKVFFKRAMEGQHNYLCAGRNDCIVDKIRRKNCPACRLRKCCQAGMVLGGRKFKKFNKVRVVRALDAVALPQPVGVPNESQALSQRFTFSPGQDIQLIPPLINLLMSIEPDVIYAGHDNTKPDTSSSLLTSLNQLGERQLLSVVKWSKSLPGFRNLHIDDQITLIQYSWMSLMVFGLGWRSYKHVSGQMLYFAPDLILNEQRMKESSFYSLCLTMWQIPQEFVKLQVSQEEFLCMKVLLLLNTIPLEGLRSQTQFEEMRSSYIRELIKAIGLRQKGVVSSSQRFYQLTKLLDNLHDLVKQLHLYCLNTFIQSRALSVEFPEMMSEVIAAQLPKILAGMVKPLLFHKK

[7] = biological target: T3, Peroxisome proliferator-activated receptor gamma (Homo sapiens, UniProt P37231); experiment: Inhibition of PPARgamma (unknown origin) transfected in HEK293 cells incubated for 18 hrs in presence of rosiglitazone by dual luciferase reporter assay; assay type: cell-based
T3 sequence (P37231 whole entry): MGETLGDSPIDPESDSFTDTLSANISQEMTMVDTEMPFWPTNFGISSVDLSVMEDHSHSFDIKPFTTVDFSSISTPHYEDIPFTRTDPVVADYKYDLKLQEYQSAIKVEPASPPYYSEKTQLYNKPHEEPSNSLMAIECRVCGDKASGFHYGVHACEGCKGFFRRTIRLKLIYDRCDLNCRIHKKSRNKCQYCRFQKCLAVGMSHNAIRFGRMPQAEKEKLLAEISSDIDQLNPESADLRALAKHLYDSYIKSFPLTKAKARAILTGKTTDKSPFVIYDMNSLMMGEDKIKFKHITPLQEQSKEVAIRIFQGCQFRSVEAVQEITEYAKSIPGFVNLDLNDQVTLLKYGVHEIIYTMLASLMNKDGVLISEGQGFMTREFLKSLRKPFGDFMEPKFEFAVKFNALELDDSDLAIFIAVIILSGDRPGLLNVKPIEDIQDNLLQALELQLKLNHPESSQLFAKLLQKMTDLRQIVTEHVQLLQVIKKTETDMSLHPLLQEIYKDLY

[8] = Subacute toxicity in ICR mouse assessed as changes in serum ALT level at 500 mg/kg/day, po administered for 14 days; assay type: organism-based; conditions: in vivo, 336 h, time 14 day
[9] = biological target: Retinoic acid receptor gamma (Homo sapiens, UniProt P13631); experiment: Activation of Gal-DBD and NHRLBD fused RARgamma (unknown origin) transfected in African green monkey CV-1 cells by luciferase reporter assay; assay type: cell-based
Sequence of Retinoic acid receptor gamma (P13631 whole entry, the tested form may be a part): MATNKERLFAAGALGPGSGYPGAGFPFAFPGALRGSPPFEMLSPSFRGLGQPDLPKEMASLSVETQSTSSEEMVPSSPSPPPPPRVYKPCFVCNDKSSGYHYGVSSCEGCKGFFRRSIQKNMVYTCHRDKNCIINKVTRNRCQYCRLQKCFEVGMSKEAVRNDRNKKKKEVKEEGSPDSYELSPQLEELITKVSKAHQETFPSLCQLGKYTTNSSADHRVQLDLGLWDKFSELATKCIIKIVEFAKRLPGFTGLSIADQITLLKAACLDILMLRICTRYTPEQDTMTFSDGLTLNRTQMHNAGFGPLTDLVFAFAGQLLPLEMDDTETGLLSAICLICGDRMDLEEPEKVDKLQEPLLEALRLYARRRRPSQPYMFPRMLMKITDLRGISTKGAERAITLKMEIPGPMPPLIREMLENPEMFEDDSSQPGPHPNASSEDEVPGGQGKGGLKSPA

[10] = biological target: T4, Fatty acid-binding protein, liver (Homo sapiens, UniProt P07148); experiment: Displacement of 8-anilino-1-naphthalene-sulfonic acid from FABP1 (unknown origin) incubated for 3 mins by fluorescence based assay
T4 sequence (P07148 whole entry): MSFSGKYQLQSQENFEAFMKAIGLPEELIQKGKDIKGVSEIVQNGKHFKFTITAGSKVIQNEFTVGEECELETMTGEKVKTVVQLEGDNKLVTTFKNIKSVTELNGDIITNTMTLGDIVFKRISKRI

Mus musculus [11] = experiment: Antioxidant activity in western diet and CCl4-induced nonalcoholic steatohepatitis C57BL/6 mouse model assessed as increase in SOD level at 20 mg/kg, po administered for 12 weeks starting from week 8 and change in dose for every 5 days; assay type: functional, organism-based; conditions: time 4.0 weeks
[12] = biological target: Free fatty acid receptor 1 (Homo sapiens, UniProt O14842); experiment: Agonist activity at human FFA1 stably expressed in CHO cells assessed as intracellular calcium flux by FLIPR assay; assay type: functional, cell-based
Sequence of Free fatty acid receptor 1 (O14842 whole entry): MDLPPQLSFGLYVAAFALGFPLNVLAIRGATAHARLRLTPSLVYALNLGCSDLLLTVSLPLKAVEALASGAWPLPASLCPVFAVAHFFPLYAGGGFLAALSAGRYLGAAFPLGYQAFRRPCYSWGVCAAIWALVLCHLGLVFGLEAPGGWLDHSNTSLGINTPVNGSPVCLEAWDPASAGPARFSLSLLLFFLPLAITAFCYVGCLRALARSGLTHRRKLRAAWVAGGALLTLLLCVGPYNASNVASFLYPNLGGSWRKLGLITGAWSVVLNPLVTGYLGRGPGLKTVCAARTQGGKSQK

Mus musculus [13] = experiment: Anti-NASH activity in western diet and CCl4-induced nonalcoholic steatohepatitis C57BL/6 mouse assessed as reduction in IL-1beta level at 20 mg/kg, po administered for 12 weeks starting from week 8 and change in dose for every 5 days by ELISA; assay type: functional, organism-based; conditions: time 4.0 weeks
[14] = biological target: T1, Bile acid receptor (Mus musculus); experiment: In vivo activation of FXR pathway in western diet and CCl4-induced nonalcoholic steatohepatitis C57BL/6 mouse model assessed as upregulation of OST-beta gene expression in ileum at 20 mg/kg, po administered for 12 weeks starting from week 8 and change in dose for every 5 days by RT-PCR analysis; assay type: functional, organism-based; conditions: time 4.0 weeks

O=C(O)C1(c2cccc(-c3ccc(OCc4c(-c5c(Cl)cccc5Cl)noc4C4CC4)cc3)c2)CC1
Activity [1]: Active
concentration at 120 h [2]: 996 ng/g
EC50 [3]: > 10 µM
Kp at 120 h [4]: 5.1
Activity [5]: Non-Toxic
EC50 (Bile acid receptor): 0.143 µM
Activity (Mus musculus [6]): Active
EC50 (Progesterone receptor): > 10 µM
IC50 [7]: > 10 µM
Activity [8]: Non-Toxic
EC50 [9]: > 10 µM
IC50 [10]: 2.7 µM
Activity (Mus musculus [11]): Active
EC50 [12]: > 10 µM
Activity (Mus musculus [13]): Active
Activity [14]: Active
